Experiment [1] concerns PSA promoter (androgen-responsive promoter) in 22RvPSA36-103 cells. In words: PSA-luciferase reporter assay, induction by steroid hormones. It is filed as cell-based, human. Particulars: 20 hours; for PSA-luciferase activity stimulation: 10 nM, dose dependent, maximum. On the procedure:
The 22Rvl cell line was purchased from ATCC. Reporter plasmid (p5.7 kb-PSA-Luc) was constructed by inserting the 5.7 kb PSA promoter into pGL3 plasmid (Promega).
(§1) For luciferase activity assays, 8×10^4 22Rvl-derived cells were grown in 48-well multi-well plates. The cell culture medium was RPMI containing 5% charcoal coated dextran stripped fetal bovine serum (Hyclone). After the cells were grown for one day in culture, their growth medium was exchanged to include experimental or control compositions, as described below, and cell growth was continued for a further 20 hours. Cells were lysed by the addition of passive lysis buffer (Promega), then luciferase assays were performed using a luciferase assay system (Promega) and VICTOR^2 multilabel counter (PerkinElmer), and normalized to lysate protein as measured by a Coomassie (Bradford) Protein Assay Kit (Pierce).
The AR signaling pathway promotes the development of prostate cancer. Thus, we established a cell-based model to observe androgen-responsive promoter activity in human prostate cancer cells. […] 22RvPSA36-103 cells were incubated for 20 hours in the presence of an androgen.
Background: In a reporter assay the amount or activity of a reporter protein is the signal.

In experiment [2] the test system is androgen-responsive promoter activity in 22RvPSA36-103 cells. In words: Luciferase assay, inhibition of androgen-induced androgen-responsive promoter activity. It counts as cell-based, human. To be noted: 20 hours. On the procedure:
as §1
The ability of the IKK inhibitors 15-deoxy-Δ^12,14-prostaglandin J2, prostaglandin A1, and wedelolactone to inhibit androgen-responsive promoter activity was tested using the above-described luciferase assay.
A tet operon-regulated H1-small hairpin RNA expression cassette was constructed and inserted into the pcDNA6tTR™ plasmid from Invitrogen (Carlsbad, Calif.). Each knockdown plasmid was transfected into 22RvPSA36-103 cells to produce stably transfected cell lines. The knockdown of IKKα or IKKβ in daughter cell lines was determined by immunoblotting. […] To induce RNAi-mediated knockdown, cells were grown in medium containing 1 μg/ml doxycycline as compared to vehicle control for 3 days. Subsequent treatment and assays were performed according to the procedure of the aforementioned luciferase assays.

The subject of experiment [3] is AR in a complex with IKKα. To be noted: 10 nM, five minutes, 22Rv/PSA36-103 cells. From the text:
We investigated if IKKα or IKKβ could interact with activated AR in 22Rv/PSA36-103 cells after androgen stimulation.

Another experiment deals with 22Rv1 cells. Briefly: Colony forming efficiency, crystal violet OD595, 22Rv1 cells. It counts as cell-based, human. To be noted: 6 days, plus androgen.
The next experiment has as its system 22RvPSA36-103 cells. In words: Colony forming efficiency, crystal violet OD595, 22RvPSA36-103 cells. It counts as cell-based, human. To be noted: 6 days, plus androgen. As for the experimental part: Given that activation of the AR signaling pathway stimulates prostate cancer cell proliferation and our finding that IKKα is implicated in this pathway, we sought to determine if IKKα inhibition would reduce prostate cancer cell proliferation. To this end, the colony forming efficiency of 22Rv1 cells and 22RvPSA36-103 cells in the presence of an androgen plus or minus an IKK inhibitor was determined by growing 2×10^4 cells in 12-well multi-well plates for 6 days. The growth medium was replaced every three days. At the end of the growth period, cell colonies were stained with 0.1% crystal violet in phosphate buffer saline, dried, and photographed. Cellular retention of crystal violet was extracted with 20% acetic acid in water and measured at OD595 as a quantitative indicator of colony forming efficiency.

On to `CC(=O)[C@H]1CC[C@H]2[C@@H]3CCC4=CC(=O)CC[C@]4(C)[C@H]3CC[C@]12C` [progesterone], for which, in experiment [1], the “Induction of PSA-luciferase expression” value is given as “failed to induce PSA-luciferase expression”.

For the compound `C[C@]12CC[C@@H]3c4ccc(O)cc4CC[C@H]3[C@@H]1CC[C@@H]2O` [17-β-estradiol], the “Induction of PSA-luciferase expression” value in experiment [1] is “failed to induce PSA-luciferase expression”.

Take `CCCCC[C@H](O)/C=C/[C@H]1C=CC(=O)[C@@H]1CCCCCCC(=O)O` [prostaglandin A1]: the “Inhibition of 5α-dihydrotestosterone-induced luciferase expression” value in experiment [2] is “inhibited 5α-dihydrotestosterone-induced luciferase expression in a dose-dependent manner”.

Regarding `C[C@]12CCC(=O)C[C@@H]1CC[C@@H]1[C@@H]2CC[C@]2(C)[C@@H](O)CC[C@@H]12` [5α-dihydrotestosterone], the “Co-immunoprecipitation of the AR in a complex with IKKα” value in experiment [3] is reported as “detected”. Moreover, the PSA-luciferase activity stimulation entry in experiment [1] is on record as “approximately 100 fold over baseline”.

`CCCCC/C=C/C=C1/C(=O)C=C[C@@H]1C/C=C\CCCC(=O)O` [15-deoxy-Δ^12,14-prostaglandin J2]: in experiment [2], the “Inhibition of 5α-dihydrotestosterone-induced luciferase expression” value is “inhibited 5α-dihydrotestosterone-induced luciferase expression in a dose-dependent manner”.

Take `COc1cc(O)c2c(c1)oc(=O)c1c3cc(O)c(O)cc3oc21` [wedelolactone]: in experiment [2], the “Inhibition of 5α-dihydrotestosterone-induced luciferase expression” value is “inhibited 5α-dihydrotestosterone-induced luciferase expression in a dose-dependent manner”. Moreover, the “Inhibition of androgen-stimulated colony growth” value in the experiment with 22Rv1 cells and with 22RvPSA36-103 cells was “highly effective” throughout.

For the compound `C[C@]12CC[C@H]3[C@@H](CCC4=CC(=O)CC[C@@]43C)[C@@H]1CC[C@@H]2O` [testosterone], the PSA-luciferase activity stimulation result in experiment [1] was “approximately 100 fold over baseline”.

These data come from patent US9144591B2, “Transcription modulator compositions” (Academia Sinica, priority 2006, dated 2015).
